Laboratory results taken from patent publication US5977063A, “Alkylated hexapeptides” (Eli Lilly and Company, priority 1998, dated 1999).

Legend:
Assay type in all cases: cell-based
[1] = system: Enterococcus faecium and faecalis (RESISTANT); settings: geometric mean of 4-6 isolates
Description: (§1) The antibacterial efficacy of the present compounds is illustrated by Table II. The minimal inhibitory concentrations (MICs) were determined using a standard broth micro-dilution assay.

[2] = system: Enterococcus faecium and faecalis (SENSITIVE); experiment: MIC, standard broth micro-dilution assay, SENSITIVE enterococci; design: unit not given here; settings: geometric mean of 4-6 isolates
Description: as §1

[3] = system: Staphylococcus aureus 446; experiment: MIC, standard broth micro-dilution assay, SA 446; design: unit not given here
Description: as §1

[4] = system: Staphylococcus aureus 489; experiment: MIC, standard broth micro-dilution assay, SA 489; design: unit not given here
Description: as §1

[5] = system: Staphylococcus aureus 447; experiment: MIC, standard broth micro-dilution assay, SA 447; design: unit not given here
Description: as §1

[6] = system: Staphylococcus haemolyticus 105; experiment: MIC, standard broth micro-dilution assay, SH 105; design: unit not given here
Description: as §1

[7] = system: Staphylococcus haemolyticus 415; experiment: MIC, standard broth micro-dilution assay, SH 415; design: unit not given here
Description: as §1

[8] = system: Staphylococcus epidermidis 270; experiment: MIC, standard broth micro-dilution assay, SE 270; design: unit not given here
Description: as §1

[9] = system: Streptococcus pyogenes C203; experiment: MIC, standard broth micro-dilution assay, SPY C203; design: unit not given here
Description: as §1

[10] = system: Streptococcus pneumoniae P1; experiment: MIC, standard broth micro-dilution assay, SPN P1; design: unit not given here
Description: as §1

Compound | Minimal Inhibitory Concentration (MIC) RESISTANT [1] | Minimal Inhibitory Concentration (MIC) SENSITIVE [2] | Minimal Inhibitory Concentration (MIC) SA 446 [3] | Minimal Inhibitory Concentration (MIC) SA 489 [4] | Minimal Inhibitory Concentration (MIC) SA 447 [5] | Minimal Inhibitory Concentration (MIC) SH 105 [6] | Minimal Inhibitory Concentration (MIC) SH 415 [7] | Minimal Inhibitory Concentration (MIC) SE 270 [8] | Minimal Inhibitory Concentration (MIC) SPY C203 [9] | Minimal Inhibitory Concentration (MIC) SPN P1 [10]
C[C@@H]1O[C@@H](O[C@@H]2c3ccc(c(Cl)c3)Oc3cc4cc(c3O[C@@H]3O[C@H](CO)[C@@H](O)[C@H](O)[C@H]3O[C@H]3C[C@](C)(NCc5ccc(-c6ccccc6)cc5)[C@@H](O)[C@H](C)O3)Oc3ccc(cc3Cl)[C@@H](O)[C@@H](NCCCCCCc3ccccc3)C(=O)N[C@@H](CC(N)=O)C(=O)N[C@H]4C(=O)N[C@H]3C(=O)N[C@@H]2C(=O)N[C@H](C(=O)O)c2cc(O)cc(O)c2-c2cc3ccc2O)C[C@](C)(N)[C@H]1O [Example 20, N^1 -(6-PHENYL-n-HEXYL)-N^DISACC -(p-PHENYLBENZYL)-DESLEUCYL-A82846B] | 64 | 11 | 4 | 4 | 4 | 1 | 1 | 1 | ≤ .06 | ≤ .06
C[C@@H]1O[C@@H](O[C@H]2[C@H](Oc3c4cc5cc3Oc3ccc(cc3Cl)[C@@H](O[C@H]3C[C@](C)(N)[C@@H](O)[C@H](C)O3)[C@@H]3NC(=O)[C@H](NC(=O)[C@@H]5NC(=O)[C@H](CC(N)=O)NC(=O)[C@H](NCc5ccc(O)cc5)[C@H](O)c5ccc(c(Cl)c5)O4)c4ccc(O)c(c4)-c4c(O)cc(O)cc4[C@@H](C(=O)O)NC3=O)O[C@H](CO)[C@@H](O)[C@@H]2O)C[C@](C)(N)[C@H]1O [Example 13, N^1 -(p-HYDROXYBENZYL)-DESLEUCYL-A82846B] | 54 | 4 | 16 | 8 | 32 | > 64 | > 64 | 32 | 0.25 | ≤ .06
C[C@@H]1O[C@@H](O[C@H]2[C@H](Oc3c4cc5cc3Oc3ccc(cc3Cl)[C@@H](O[C@H]3C[C@](C)(N)[C@@H](O)[C@H](C)O3)[C@@H]3NC(=O)[C@H](NC(=O)[C@@H]5NC(=O)[C@H](CC(N)=O)NC(=O)[C@H](NCCCCCCCCCCc5ccccc5)[C@H](O)c5ccc(c(Cl)c5)O4)c4ccc(O)c(c4)-c4c(O)cc(O)cc4[C@@H](C(=O)O)NC3=O)O[C@H](CO)[C@@H](O)[C@@H]2O)C[C@](C)(N)[C@H]1O [Example 18, N^1 -(10-PHENYL-n-DECYL)DESLEUCYL-A82846B] | 19 | 12 | 2 | 2 | 2 | 4 | 2 | 4 | 0.25 | 0.5
CCCCCCN[C@H]1C(=O)N[C@@H](CC(N)=O)C(=O)N[C@H]2C(=O)N[C@H]3C(=O)N[C@H](C(=O)N[C@H](C(=O)O)c4cc(O)cc(O)c4-c4cc3ccc4O)[C@H](O[C@H]3C[C@](C)(N)[C@@H](O)[C@H](C)O3)c3ccc(c(Cl)c3)Oc3cc2cc(c3O[C@@H]2O[C@H](CO)[C@@H](O)[C@H](O)[C@H]2O[C@H]2C[C@](C)(NCc3ccc(-c4ccccc4)cc3)[C@@H](O)[C@H](C)O2)Oc2ccc(cc2Cl)[C@H]1O [Example 11, N^1 -n-HEXYL-N^DISACC -(p-PHENYLBENZYL)-DESLEUCYL-A82846B] | 27 | 11 | 1 | 1 | 0.5 | 2 | 1 | 0.5 | 0.125 | 0.125
C[C@@H]1O[C@@H](O[C@@H]2c3ccc(c(Cl)c3)Oc3cc4cc(c3O[C@@H]3O[C@H](CO)[C@@H](O)[C@H](O)[C@H]3O[C@H]3C[C@](C)(NCc5ccc(-c6ccccc6)cc5)[C@@H](O)[C@H](C)O3)Oc3ccc(cc3Cl)[C@@H](O)[C@@H](NCc3ccc(O)cc3)C(=O)N[C@@H](CC(N)=O)C(=O)N[C@H]4C(=O)N[C@H]3C(=O)N[C@@H]2C(=O)N[C@H](C(=O)O)c2cc(O)cc(O)c2-c2cc3ccc2O)C[C@](C)(N)[C@H]1O [Example 17, N^1 -(p-HYDROXYBENZYL)-N^DISACC -(p-PHENYLBENZYL)-DESLEUCYL-A82846B] | 27 | 2.6 | 1 | 1 | 0.5 | 0.5 | 1 | 0.5 | ≤ .06 | ≤ .06
C[C@@H]1O[C@@H](O[C@@H]2c3ccc(c(Cl)c3)Oc3cc4cc(c3O[C@@H]3O[C@H](CO)[C@@H](O)[C@H](O)[C@H]3O[C@H]3C[C@](C)(NCc5ccc(-c6ccc(Cl)cc6)cc5)[C@@H](O)[C@H](C)O3)Oc3ccc(cc3Cl)[C@@H](O)[C@@H](NCCCCCCc3ccccc3)C(=O)N[C@@H](CC(N)=O)C(=O)N[C@H]4C(=O)N[C@H]3C(=O)N[C@@H]2C(=O)N[C@H](C(=O)O)c2cc(O)cc(O)c2-c2cc3ccc2O)C[C@](C)(N)[C@H]1O [Example 28, N^1 -(6-PHENYL-n-HEXYL)-N^DISACC -(p-(p-CHLOROPHENYL)BENZYL)DESLEUCYL-A82846B] | 6.7 | 7 | 8 | 8 | 8 | 4 | 2 | 4 | 4 | 16
